Assay results taken from ChEMBL document CHEMBL1201862, “PubChem BioAssay data set” (2004).
Activity calls are given as the source filed them.

Columns and labels:
[1] = target: Acyl-homoserine lactone acylase PvdQ (Pseudomonas aeruginosa (strain LESB58), UniProt Q9I194); assay: PvdQ acylase enzyme activity blockers – biochemical, fluorescence, plate reader and imaging, cherry-picks, dose response (AID 493231)
[2] = target: Female germline-specific tumor suppressor gld-1 (Caenorhabditis elegans, UniProt Q17339); assay: blockers of GLD-1/TGE RNA complex formation – biochemical, fluorescence polarization, C. elegans, dose response (AID 2802);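 note: fluorescence polarization of labeled TGE RNA bound by purified gld-1 protein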
Protein Rev = Protein Rev (Human immunodeficiency virus type 1 group M subtype B (isolate HXB2)(HIV-1), UniProt P04618); assay: blockers of HIV Rev/RRE RNA complex – biochemical, fluorescence polarization, HIV-1, dose response (AID 434976); set-up: species or system Human immunodeficiency virus 1
[3] = target: T1, RNA-binding protein pos-1 (Caenorhabditis elegans, UniProt G5EF15); assay: disruptors of C. elegans POS-1 RNA interaction – biochemical, fluorescence polarization, dose response (AID 1964);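 note: purified POS-1 fused to maltose binding protein made in E. coli; potency of compounds blocking POS-1 binding to fluorescent RNA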
T1 sequence (G5EF15 whole entry): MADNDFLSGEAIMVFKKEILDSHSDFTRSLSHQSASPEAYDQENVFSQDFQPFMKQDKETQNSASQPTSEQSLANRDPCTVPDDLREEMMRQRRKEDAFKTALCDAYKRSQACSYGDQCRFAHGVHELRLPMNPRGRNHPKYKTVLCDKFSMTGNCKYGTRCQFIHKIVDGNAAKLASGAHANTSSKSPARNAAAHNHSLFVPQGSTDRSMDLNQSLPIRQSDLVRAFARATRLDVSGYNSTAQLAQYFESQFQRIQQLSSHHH

[4] = target: T2, Zinc finger protein mex-5 (Caenorhabditis elegans, UniProt Q9XUB2); assay: potency of MEX-5 RNA-binding blockers – biochemical, C. elegans, fluorescence polarization, dose response (AID 1960)
T2 sequence (Q9XUB2 whole entry): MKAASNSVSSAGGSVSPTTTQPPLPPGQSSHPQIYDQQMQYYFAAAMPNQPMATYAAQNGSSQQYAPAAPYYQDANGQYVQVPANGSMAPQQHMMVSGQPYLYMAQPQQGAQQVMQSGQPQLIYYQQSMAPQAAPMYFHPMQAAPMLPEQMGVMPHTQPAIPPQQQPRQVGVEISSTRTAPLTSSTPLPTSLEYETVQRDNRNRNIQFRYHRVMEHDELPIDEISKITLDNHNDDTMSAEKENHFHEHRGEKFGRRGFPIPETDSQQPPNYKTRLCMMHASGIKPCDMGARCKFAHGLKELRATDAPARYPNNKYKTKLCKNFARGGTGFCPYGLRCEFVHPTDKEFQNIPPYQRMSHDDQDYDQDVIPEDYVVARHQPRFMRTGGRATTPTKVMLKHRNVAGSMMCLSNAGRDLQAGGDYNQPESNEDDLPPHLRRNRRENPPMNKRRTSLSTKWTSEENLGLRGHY

[5] = target: T3, C-C chemokine receptor type 6 (Homo sapiens, UniProt P51684); assay: antagonism of CCR6 beta-arrestin recruitment – cell-based, luminescent beta-arrestin readout, dose response (AID 504728); assay type: functional
T3 sequence (P51684 whole entry): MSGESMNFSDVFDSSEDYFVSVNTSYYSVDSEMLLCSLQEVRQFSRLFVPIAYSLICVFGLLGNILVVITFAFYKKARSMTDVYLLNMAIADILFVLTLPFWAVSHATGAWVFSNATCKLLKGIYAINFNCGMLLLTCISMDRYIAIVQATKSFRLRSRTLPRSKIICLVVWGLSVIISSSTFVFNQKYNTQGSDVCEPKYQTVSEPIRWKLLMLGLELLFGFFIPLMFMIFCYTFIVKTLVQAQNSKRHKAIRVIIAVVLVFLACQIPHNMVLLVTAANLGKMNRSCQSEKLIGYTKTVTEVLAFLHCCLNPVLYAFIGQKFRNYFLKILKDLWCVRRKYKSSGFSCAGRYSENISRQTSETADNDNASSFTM

Beta-galactosidase = Beta-galactosidase (Escherichia coli, UniProt Q8VNN2); assay: detection-enzyme interference by beta-gal modulators – biochemical, E. coli enzyme, set 3, artefact control for CCR6 antagonist project, dose response (AID 504712); assay type: functional
[6] = target: T4, Histone-lysine N-methyltransferase NSD2 (Homo sapiens, UniProt O96028); assay type: biochemical
T4 sequence (O96028 whole entry): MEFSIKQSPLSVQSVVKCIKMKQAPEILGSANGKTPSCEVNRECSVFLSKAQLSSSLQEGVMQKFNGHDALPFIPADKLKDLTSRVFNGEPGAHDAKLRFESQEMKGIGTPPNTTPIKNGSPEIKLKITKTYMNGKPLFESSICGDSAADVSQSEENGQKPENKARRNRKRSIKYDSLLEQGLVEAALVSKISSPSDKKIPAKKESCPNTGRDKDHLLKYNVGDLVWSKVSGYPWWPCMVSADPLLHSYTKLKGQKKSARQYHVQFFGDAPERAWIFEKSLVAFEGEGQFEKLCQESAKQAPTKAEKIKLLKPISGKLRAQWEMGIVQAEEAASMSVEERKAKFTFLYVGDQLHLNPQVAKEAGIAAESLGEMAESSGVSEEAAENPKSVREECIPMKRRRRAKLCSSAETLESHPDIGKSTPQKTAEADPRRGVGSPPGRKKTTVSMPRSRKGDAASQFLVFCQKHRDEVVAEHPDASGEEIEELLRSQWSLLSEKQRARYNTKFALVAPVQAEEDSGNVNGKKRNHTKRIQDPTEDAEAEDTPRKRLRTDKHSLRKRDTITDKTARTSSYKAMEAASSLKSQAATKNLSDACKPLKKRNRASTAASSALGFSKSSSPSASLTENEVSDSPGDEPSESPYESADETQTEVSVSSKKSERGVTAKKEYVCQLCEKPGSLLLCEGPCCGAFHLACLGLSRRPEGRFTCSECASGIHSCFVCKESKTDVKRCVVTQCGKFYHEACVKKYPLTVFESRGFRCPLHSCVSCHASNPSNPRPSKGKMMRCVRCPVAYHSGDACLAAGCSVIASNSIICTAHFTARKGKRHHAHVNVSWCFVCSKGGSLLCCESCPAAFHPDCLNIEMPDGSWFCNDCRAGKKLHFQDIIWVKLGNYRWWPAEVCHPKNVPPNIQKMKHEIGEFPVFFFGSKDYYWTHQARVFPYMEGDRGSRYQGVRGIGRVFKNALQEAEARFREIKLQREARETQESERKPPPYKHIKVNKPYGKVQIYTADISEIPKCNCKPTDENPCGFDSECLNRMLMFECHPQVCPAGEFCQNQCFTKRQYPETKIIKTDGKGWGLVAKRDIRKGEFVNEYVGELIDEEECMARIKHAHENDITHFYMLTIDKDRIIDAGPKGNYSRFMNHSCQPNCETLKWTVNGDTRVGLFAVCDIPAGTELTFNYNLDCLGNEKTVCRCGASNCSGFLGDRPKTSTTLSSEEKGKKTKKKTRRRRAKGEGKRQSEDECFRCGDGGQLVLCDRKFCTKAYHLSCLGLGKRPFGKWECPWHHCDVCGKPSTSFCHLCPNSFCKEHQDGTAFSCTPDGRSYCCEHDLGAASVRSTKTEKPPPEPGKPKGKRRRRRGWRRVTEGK

Genome polyprotein = Genome polyprotein (dengue virus type 2, UniProt P29990); assay: flavivirus cap methylation enzyme inhibition – biochemical, confirmation dose response, primary screen (AID 588689); assay type: functional
[7] = target: 1-phosphatidylinositol 4,5-bisphosphate phosphodiesterase beta-3 (Homo sapiens, UniProt Q01970); assay: Fluorescence-based biochemical high throughput dose response assay to identify inhibitors of phospholipase C isozymes (PLC-B3).
ORF 73 = ORF 73 (Human herpesvirus 8, UniProt O40947); assay: KSHV LANA DNA-binding disruption – biochemical, fluorescence polarization, cherry-picked samples, dose response (AID 504725); set-up: species or system Human gammaherpesvirus 8;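 note: fluorescence polarization of a labeled DNA duplex reporting LANA DNA binding; potency is for inhibitors that block LANA binding to the DNA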
[8] = target: T5, Alkaline phosphatase, tissue-nonspecific isozyme (Homo sapiens, UniProt P05186); assay: TNAP enzyme inhibition by screening hits, dose response, selectivity assay for mouse IAP inhibitor project, biochemical, human TNAP, uHTS hits (AID 488906); assay type: functional
T5 sequence (P05186 whole entry): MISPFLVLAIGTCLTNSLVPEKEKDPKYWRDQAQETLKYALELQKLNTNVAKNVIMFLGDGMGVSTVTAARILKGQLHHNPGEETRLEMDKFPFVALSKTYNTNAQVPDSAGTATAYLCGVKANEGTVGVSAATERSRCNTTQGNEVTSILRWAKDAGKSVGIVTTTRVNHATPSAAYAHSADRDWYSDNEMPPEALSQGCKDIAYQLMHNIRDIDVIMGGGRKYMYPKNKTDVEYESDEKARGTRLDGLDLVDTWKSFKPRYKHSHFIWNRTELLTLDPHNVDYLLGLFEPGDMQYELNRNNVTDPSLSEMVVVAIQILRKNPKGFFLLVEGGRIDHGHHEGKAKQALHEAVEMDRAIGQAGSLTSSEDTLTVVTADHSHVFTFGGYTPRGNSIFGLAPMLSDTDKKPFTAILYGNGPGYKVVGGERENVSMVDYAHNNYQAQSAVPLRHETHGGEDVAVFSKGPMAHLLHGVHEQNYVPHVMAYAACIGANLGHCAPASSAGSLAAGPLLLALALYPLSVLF

Bcl-2-like protein 1 = Bcl-2-like protein 1 (Homo sapiens, UniProt Q07817); assay: blockers of BCLXL peptide binding – biochemical, fluorescence polarization, 1536-well, selectivity assay for MCL1 inhibitor project, dose response (AID 2218)
[9] = target: Intestinal-type alkaline phosphatase (Homo sapiens, UniProt P09923); assay: inhibition of human intestinal alkaline phosphatase – biochemical, dose response (AID 488876); assay type: functional
HeLa = assay: viability loss in HeLa cells – cell-based, 24 h, cherry-picked samples, cytotoxicity control, dose response (AID 504726); assay type: functional; details: Homo sapiens;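 note: potency for cytotoxicity as loss of luminescence signal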
[10] = target: Induced myeloid leukemia cell differentiation protein Mcl-1 (Homo sapiens, UniProt Q07820); assay: blockers of MCL1 binding to BIM peptide – biochemical, fluorescence polarization, BIM-BH3 peptide, 1536-well, dose response (AID 2217)
[11] = target: 1-phosphatidylinositol 4,5-bisphosphate phosphodiesterase gamma-1 (Homo sapiens, UniProt P19174); assay: Counterscreen for inhibitors of phospholipase C isozymes (PLC-B3): Fluorescence-based biochemical high throughput dose response assay to identify inhibitors of phospholipase C isozymes (PLC-gamma1).
[12] = target: Intestinal-type alkaline phosphatase (Mus musculus, UniProt P24822); assay: PubChem AID 488785; assay type: functional
Large T antigen = Large T antigen (Simian virus 40, UniProt P03070); assay type: functional, Betapolyomavirus macacae;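 note: Confirmatory-stage PubChem screen for compounds that inhibit SV40 T antigen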
[13] = luciferase reporter signal suppression in cells – H4 neuroglioma cells, luminescence, dose response (AID 1990); assay type: functional, cell-based
[14] = Luminescence Cell-Based Dose Response HTS to Identify Inhibitors of 5'UTR Stem-Loop Driven Prion Protein mRNA Translation in H4 Neuroglioblastoma Cells. [Related pubchem assays: 1827 (Project Summary), 1813 (Primary HTS)]; assay type: functional
[15] = alpha-synuclein stem-loop luciferase translation blockers – H4 neuroglioma cells, luminescence, confirmation (AID 1988); assay type: functional, cell-based
[16] = target: T6, Voltage-gated N-type calcium channel alpha-1B subunit/Amyloid beta A4 precursor protein-binding family A member 1 (Homo sapiens, UniProt Q00975+Q02410); assay type: protein assay
[17] = target: T6, Voltage-gated N-type calcium channel alpha-1B subunit/Amyloid beta A4 precursor protein-binding family A member 1; assay type: protein assay; remark: listed apart in the source
[18] = target: T6, Voltage-gated N-type calcium channel alpha-1B subunit/Amyloid beta A4 precursor protein-binding family A member 1; assay: disruptors of Mint-PDZ/N-type channel peptide interaction – biochemical, HTRF, SAR follow-up (AID 2489); assay type: functional
[19] = A Cell Based Assay for the Identification of Probe candidate Compounds with Anti- Venezuelan Equine Encephalitis virus. [Related pubchem assays: 2409, 2419, 1621, 2238, 2405, 2024, 2065, 2402, 2414, 1635, 1650, 2244 ]; assay type: functional
Vero [20] = assay: host cell viability loss, Vero E6 – synthesized analogs, cytotoxicity control for West Nile virus antiviral project, SAR follow-up (AID 2244); assay type: functional; details: Chlorocebus sabaeus
Vero [21] = assay: Vero cell viability after compound exposure – synthesized analogs, set II, cytotoxicity control for West Nile virus antiviral project, SAR follow-up (AID 2402); assay type: functional; details: Chlorocebus sabaeus

SMILES: Cc1cc(NC(=O)c2cc(Cl)ccc2Cl)no1
- AC50 [1]: > 100 µM (inactive)

SMILES: CCN1C/C(=C/c2cccs2)c2nc3ccccc3c(C(=O)O)c2C1
- IC50 [2]: 9.41 µM (active)
- IC50 (Protein Rev): 17 µM (not active)
- EC50 [3]: 39.2 µM (active)
- EC50 [4]: 31.9 µM (active)

SMILES: CN1CCN(c2ccccc2NC(=O)c2ccc(-c3cccc(Cl)c3)o2)CC1
- IC50 [5]: > 66.6 µM (inactive)
- IC50 (Beta-galactosidase): > 66.6 µM (inactive)

SMILES: O=C(CN1C(=O)/C(=C/c2ccco2)SC1=S)Nc1ccc(O)c(C(=O)O)c1
- AC50 [6]: > 20 µM (inactive)
- IC50 (Genome polyprotein): > 100 µM (active)
- IC50 [7]: > 122 µM (inactive)
- AC50 (ORF 73): 98.5 µM (active)
- IC50 [8]: 15.1 µM (active)
- IC50 (Bcl-2-like protein 1): > 109 µM (not active)
- IC50 [9]: 13.2 µM (active)
- AC50 (HeLa): > 350 µM (inactive)
- IC50 [10]: 18.5 µM (not active)
- IC50 [11]: > 122 µM (inactive)
- IC50 [12]: 5.86 µM (active)
- IC50 (Large T antigen): 54.3 µM (active)

SMILES: COc1ccc(N2C(=O)/C(=C\NNc3nc(C)cc(C)n3)c3ccccc3C2=O)cc1OC
- IC50 [5]: 0.594 µM (active)
- EC50 [13]: 11.8 µM (active)
- EC50 [14]: 11.8 µM (active)
- EC50 [15]: 9.51 µM (active)
- IC50 (Beta-galactosidase): > 66.6 µM (inactive)

SMILES: CCCCc1ccc(/C=C2\C(=O)c3ccccc3C(O)=C2C(=O)OCC)cc1
- IC50 [16]: 17.8 µM (active)
- IC50 [17]: 5.63 µM (active)
- IC50 [18]: 16.2 µM (active)

SMILES: CCCCN(C(=O)c1ccccc1Cl)c1nc(-c2ccc(OC)cc2)cs1
- IC50 [19]: > 66.6 µM (active)
- CC50 (Vero [20]): > 40 µM (active)
- CC50 (Vero [21]): > 100 µM (active)

SMILES: COc1ccc(NC(=O)c2ccc(-c3ccc(C(C)=O)cc3)o2)cn1
- IC50 [2]: 9.1 µM (active)
- IC50 (Protein Rev): 16.4 µM (not active)

SMILES: CCCCCC1CC(COc2ccccc2)OC1=O (stereo not drawn)
- AC50 [1]: 6.27 µM (active)
